≈ marks a conversion by molar mass, not a printed value.
Test system: KB
Assay: Cytotoxicity against human KB cells
Type: functional
Conditions: read-out: ED50 (the source's name)

COc1cc([C@@H]2c3cc4c(c(OC)c3C[C@H]3COC(=O)[C@@H]32)OCO4)cc(OC)c1OC
EC50: 0.026 µg/mL (≈ 0.0607 µM)

Source: ChEMBL document CHEMBL1151348, “Plant anticancer agents. X. Lignans from Juniperus phoenicea” (1980)
